The source of these data is article PMC5300155, “Biochemical and biophysical investigations of the interaction between human glucokinase and pro-apoptotic BAD” (PLoS ONE, 2017).

For the experiment, the target named is T1, GCK (Homo sapiens, UniProt P35557).
T1 construct: hexahistidine (N); made in house; host or cells: glucokinase auxotroph BM5340(DE3)
T1 sequence (P35557 1-465): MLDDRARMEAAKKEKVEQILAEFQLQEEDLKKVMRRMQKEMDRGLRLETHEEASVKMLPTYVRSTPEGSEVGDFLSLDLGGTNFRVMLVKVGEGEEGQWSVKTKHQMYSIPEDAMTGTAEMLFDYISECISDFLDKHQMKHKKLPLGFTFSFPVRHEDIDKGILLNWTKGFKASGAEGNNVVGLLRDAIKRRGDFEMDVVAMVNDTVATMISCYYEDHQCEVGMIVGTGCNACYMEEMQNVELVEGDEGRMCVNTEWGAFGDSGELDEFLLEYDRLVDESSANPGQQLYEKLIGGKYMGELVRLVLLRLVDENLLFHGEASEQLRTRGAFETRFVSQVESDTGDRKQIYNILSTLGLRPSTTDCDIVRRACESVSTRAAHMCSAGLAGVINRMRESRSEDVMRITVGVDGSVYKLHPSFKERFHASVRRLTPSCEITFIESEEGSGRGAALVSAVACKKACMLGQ
Nature of the experiment: GCK activity, microplate G6PDH-linked assay as described by Szlyk et al. (37°C). The format is biochemical. To be noted: GCK 7.5 nM; for Effect on GCK Vmax: either assay (routine and Szlyk microplate), peptide 5 μM, 37°C in microplate assay. Here is the method: Steady state kinetics were also performed as described by Szlyk, et al.[13]. Briefly, G6PDH-linked assays were performed in clear 96-well plates at 37°C with a SpectraMax M5 microplate reader (Molecular Devices) recording absorbance at 340 nm every 30 s. Reaction mixtures contained GCK (7.5 nM), HEPES (100 mM, pH 7.4), KCl (150 mM), MgCl2(6 mM), DTT (1 mM), NAD (1 mM), BSA (0.05%), G6PDH (2.5 U), glucose (0.5–100 mM), and ATP (5 mM) in the presence or absence of BAD-GST S118D variant (5 μM) or phosphorylated BAD BH3 peptide (5 μM) in a final volume of 100 μL.
GCK (7.5 nM) was assayed in the presence of A. S118D BADGST (5 μM) or B. pBH3 (5 μM) in a 96 well plate using a microplate reader. Buffer conditions were as follows: Ref [13]: 100 mM Hepes, pH 7.4; 150 mM KCl; 1 mM NAD+; 0.05% BSA; 6 mM MgCl2; 1 mM DTT; 2.5 U G6PDH; 5 mM ATP. Optimal GCK conditions: 100 mM Hepes, pH 7.4; 150 mM KCl; 1 mM NADP+; 6 mM MgCl2; 10 mM DTT; 1.5 U G6PDH; 5 mM ATP. (EPS) Click here for additional data file.

As to “NLWAAQRYGRELRRM(p)SDKFVD [pBH3, 21-residue phosphorylated peptide containing the BH3 domain of BAD]”, the “Effect on GCK kinetics under Szlyk et al. buffer conditions” value (S118D BADGST 5 μM, or pBH3 5 μM, 96 well plate, S2 Fig) was “did not increase BAD’s effects on GCK kinetics”. Moreover, the “Effect on GCK Vmax” value runs as follows: (listed as phosphorylated BAD BH3 peptide) “no statistically significant difference in the GCK Vmax value”; (listed as phosphorylated BH3 peptide) “lack of an increase in the GCK Vmax value”.
